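Exposure lasted 48 hours, with cells grown in 96-well plates and compounds tested at five concentrations. GI50: concentration for 50% inhibition of growth.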 Active and inactive are the calls of the source. Rule as the data show it: active = GI50 up to about 1.1 µM and inactive = higher.
Legend:
Experiment in all cases: growth of human tumour cells (NCI), 48 h
[1] = system: CAKI-1
[2] = system: HCT-15
[3] = system: T47D
[4] = system: ACHN
[5] = system: SK-OV-3
[6] = system: U-251
[7] = system: NCI/ADR-RES
[8] = system: OVCAR-5
[9] = system: A549
[10] = system: EKVX
[11] = system: OVCAR-8
[12] = system: MDA-MB-435
[13] = system: LOX IMVI
[14] = system: UACC-62
[15] = system: UACC-257
[16] = system: KM12
[17] = system: HOP-92
[18] = system: MCF7
[19] = system: SK-MEL-2
[20] = system: OVCAR-3
[21] = system: OVCAR-4
[22] = system: DU-145
[23] = system: BT-549
[24] = system: M14
[25] = system: NCI-H522
[26] = system: CCRF-CEM
[27] = system: IGROV-1
[28] = system: MDA-N
[29] = system: SF-539
[30] = system: NCI-H226
[31] = system: MOLT-4
[32] = system: NCI-H460
[33] = system: SF-295
[34] = system: SNB-75
[35] = system: A498
[36] = system: Malme-3M
[37] = system: HCT-116
[38] = system: 786-0
[39] = system: HL-60
[40] = system: PC-3
[41] = system: HOP-62
[42] = system: RPMI-8226
[43] = system: NCI-H23
[44] = system: TK-10
[45] = system: SW-620
[46] = system: SF-268
[47] = system: HT-29
[48] = system: MDA-MB-231
[49] = system: SN12C
[50] = system: K562
[51] = system: SK-MEL-28
[52] = system: COLO 205
[53] = system: SK-MEL-5
[54] = system: SNB-19
[55] = system: SR
[56] = system: HCC 2998
[57] = system: RXF 393
[58] = system: UO-31

## COc1cccc(-n2nnc3c(N)nc(N)nc32)c1
[1]
  GI50: > 100 µM (inactive)
[2]
  GI50: > 100 µM
[3]
  GI50: > 100 µM (inactive)
[4]
  GI50: 53.7 µM (inactive)
[5]
  GI50: > 100 µM (inactive)
[6]
  GI50: > 100 µM (inactive)
[7]
  GI50: > 100 µM (inactive)
[8]
  GI50: > 100 µM (inactive)
[9]
  GI50: > 100 µM (inactive)
[10]
  GI50: 12.3 µM (inactive)
[11]
  GI50: > 100 µM (inactive)
[12]
  GI50: > 100 µM (inactive)
[13]
  GI50: > 100 µM (inactive)
[14]
  GI50: 33.3 µM (inactive)
[15]
  GI50: > 100 µM (inactive)
[16]
  GI50: > 100 µM (inactive)
[17]
  GI50: > 100 µM (inactive)
[18]
  GI50: > 100 µM (inactive)
[19]
  GI50: > 100 µM (inactive)
[20]
  GI50: > 100 µM (inactive)
[21]
  GI50: > 100 µM (inactive)
[22]
  GI50: > 100 µM (inactive)
[23]
  GI50: > 100 µM (inactive)
[24]
  GI50: > 100 µM (inactive)
[25]
  GI50: > 100 µM (inactive)
[26]
  GI50: > 100 µM (inactive)
[27]
  GI50: 51.6 µM (inactive)
[28]
  GI50: > 100 µM (inactive)
[29]
  GI50: > 100 µM (inactive)
[30]
  GI50: > 100 µM (inactive)
[31]
  GI50: > 100 µM (inactive)
[32]
  GI50: 94.4 µM (inactive)
[33]
  GI50: > 100 µM (inactive)
[34]
  GI50: 15.7 µM (inactive)
[35]
  GI50: > 100 µM (inactive)
[36]
  GI50: > 100 µM (inactive)
[37]
  GI50: > 100 µM (inactive)
[38]
  GI50: > 100 µM (inactive)
[39]
  GI50: > 100 µM (inactive)
[40]
  GI50: > 100 µM (inactive)
[41]
  GI50: > 100 µM (inactive)
[42]
  GI50: > 100 µM (inactive)
[43]
  GI50: 28.9 µM (inactive)
[44]
  GI50: > 100 µM (inactive)
[45]
  GI50: > 100 µM (inactive)
[46]
  GI50: 5.96 µM (inactive)
[47]
  GI50: > 100 µM (inactive)
[48]
  GI50: > 100 µM (inactive)
[49]
  GI50: > 100 µM (inactive)
[50]
  GI50: > 100 µM (inactive)
[51]
  GI50: > 100 µM (inactive)
[52]
  GI50: > 100 µM (inactive)
[53]
  GI50: > 100 µM (inactive)
[54]
  GI50: 48.8 µM (inactive)

## O=C(O)CCc1nc2cc3ccccc3cc2[nH]c1=O
[1]
  GI50: > 100 µM (inactive)
[55]
  GI50: > 100 µM (inactive)
[2]
  GI50: > 100 µM
[3]
  GI50: > 100 µM (inactive)
[4]
  GI50: > 100 µM (inactive)
[5]
  GI50: > 100 µM (inactive)
[6]
  GI50: > 100 µM (inactive)
[56]
  GI50: > 100 µM (inactive)
[7]
  GI50: > 100 µM (inactive)
[8]
  GI50: > 100 µM (inactive)
[9]
  GI50: > 100 µM (inactive)
[10]
  GI50: > 100 µM (inactive)
[11]
  GI50: > 100 µM (inactive)
[57]
  GI50: > 100 µM (inactive)
[12]
  GI50: > 100 µM (inactive)
[13]
  GI50: > 100 µM (inactive)
[14]
  GI50: > 100 µM (inactive)
[15]
  GI50: > 100 µM (inactive)
[16]
  GI50: > 100 µM (inactive)
[17]
  GI50: > 100 µM (inactive)
[18]
  GI50: 65.6 µM (inactive)
[58]
  GI50: > 100 µM (inactive)
[19]
  GI50: > 100 µM (inactive)
[20]
  GI50: > 100 µM (inactive)
[21]
  GI50: > 100 µM (inactive)
[22]
  GI50: > 100 µM (inactive)
[23]
  GI50: > 100 µM (inactive)
[24]
  GI50: > 100 µM (inactive)
[25]
  GI50: > 100 µM (inactive)
[26]
  GI50: > 100 µM (inactive)
[27]
  GI50: > 100 µM (inactive)
[28]
  GI50: > 100 µM (inactive)
[29]
  GI50: > 100 µM (inactive)
[30]
  GI50: > 100 µM (inactive)
[31]
  GI50: > 100 µM (inactive)
[32]
  GI50: > 100 µM (inactive)
[33]
  GI50: > 100 µM (inactive)
[34]
  GI50: > 100 µM (inactive)
[35]
  GI50: > 100 µM (inactive)
[37]
  GI50: > 100 µM (inactive)
[38]
  GI50: > 100 µM (inactive)
[40]
  GI50: > 100 µM (inactive)
[41]
  GI50: > 100 µM (inactive)
[43]
  GI50: > 100 µM (inactive)
[44]
  GI50: > 100 µM (inactive)
[45]
  GI50: > 100 µM (inactive)
[46]
  GI50: > 100 µM (inactive)
[47]
  GI50: > 100 µM (inactive)
[48]
  GI50: > 100 µM (inactive)
[49]
  GI50: > 100 µM (inactive)
[50]
  GI50: > 100 µM (inactive)
[51]
  GI50: > 100 µM (inactive)
[52]
  GI50: > 100 µM (inactive)
[53]
  GI50: > 100 µM (inactive)
[54]
  GI50: > 100 µM (inactive)

## CCCCCC1=C2C(c3ccc(OC)cc3)=C(N)C(c3ccc(OC)cc3)=C3NC(=O)C(C=C1)C32 (stereo not given)
[1]
  GI50: 36 µM (inactive)
[2]
  GI50: > 100 µM
[3]
  GI50: 70.1 µM (inactive)
[4]
  GI50: > 100 µM (inactive)
[5]
  GI50: 41.7 µM (inactive)
[6]
  GI50: 98.2 µM (inactive)
[56]
  GI50: > 100 µM (inactive)
[7]
  GI50: > 100 µM (inactive)
[8]
  GI50: > 100 µM (inactive)
[9]
  GI50: 29.7 µM (inactive)
[10]
  GI50: 92.3 µM (inactive)
[11]
  GI50: 30.3 µM (inactive)
[57]
  GI50: 18.9 µM (inactive)
[12]
  GI50: 37.3 µM (inactive)
[13]
  GI50: 33.9 µM (inactive)
[14]
  GI50: 53.1 µM (inactive)
[15]
  GI50: > 100 µM (inactive)
[16]
  GI50: 59.6 µM (inactive)
[17]
  GI50: 17.9 µM (inactive)
[18]
  GI50: 84.3 µM (inactive)
[58]
  GI50: 54.3 µM (inactive)
[19]
  GI50: > 100 µM (inactive)
[20]
  GI50: 57.1 µM (inactive)
[21]
  GI50: 23.2 µM (inactive)
[22]
  GI50: 57.5 µM (inactive)
[23]
  GI50: 96.4 µM (inactive)
[24]
  GI50: 59.7 µM (inactive)
[25]
  GI50: 22.4 µM (inactive)
[26]
  GI50: 32.6 µM (inactive)
[27]
  GI50: 28.1 µM (inactive)
[28]
  GI50: 61.4 µM (inactive)
[30]
  GI50: 21.9 µM (inactive)
[31]
  GI50: 56.4 µM (inactive)
[32]
  GI50: 28.1 µM (inactive)
[33]
  GI50: 36.3 µM (inactive)
[34]
  GI50: 32.8 µM (inactive)
[35]
  GI50: 43 µM (inactive)
[36]
  GI50: 19.5 µM (inactive)
[37]
  GI50: 57.5 µM (inactive)
[38]
  GI50: 25 µM (inactive)
[39]
  GI50: > 100 µM (inactive)
[40]
  GI50: 27.7 µM (inactive)
[41]
  GI50: 21.8 µM (inactive)
[42]
  GI50: 33 µM (inactive)
[43]
  GI50: 48.4 µM (inactive)
[44]
  GI50: 60.7 µM (inactive)
[45]
  GI50: 49.2 µM (inactive)
[46]
  GI50: 11.8 µM (inactive)
[47]
  GI50: > 100 µM (inactive)
[48]
  GI50: > 100 µM (inactive)
[49]
  GI50: 74.8 µM (inactive)
[50]
  GI50: 42.1 µM (inactive)
[51]
  GI50: > 100 µM (inactive)
[52]
  GI50: 32.1 µM (inactive)
[53]
  GI50: > 100 µM (inactive)
[54]
  GI50: 25.4 µM (inactive)

From ChEMBL document CHEMBL1201862, “PubChem BioAssay data set” (2004)
